The record followed here is ChEMBL document CHEMBL1201862, “PubChem BioAssay data set” (2004).

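48-hour exposure; five concentrations; linearly interpolated endpoints. GI50: concentration for 50% inhibition of growth.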 Activity calls are given as the source filed them. Rule as the data show it: active = GI50 up to about 1.1 µM and inactive = higher.

Assay in all cases: inhibition of tumour cell growth, NCI panel, 48 h
Experiment [1] relates to SF-539.
In experiment [2] the test system is SK-MEL-28.
Experiment [3] has as its system NCI/ADR-RES.
Experiment [4] deals with HL-60.
The subject of experiment [5] is IGROV-1.
The subject of experiment [6] is HT-29.
The subject of experiment [7] is ACHN.
In experiment [8] the test system is U-251.
Experiment [9] relates to M14.
The test system of experiment [10] is SR.
Experiment [11] concerns KM12.
The test system of experiment [12] is UACC-257.
Experiment [13] deals with MOLT-4.
The subject of experiment [14] is RPMI-8226.
The test system of experiment [15] is CAKI-1.
In experiment [16] the test system is OVCAR-3.

For `CC(=O)O[C@@H]1C=C(C)[C@H](CBr)O[C@@]2(C)CC[C@H](Br)C(C)(C)[C@H]12`, the GI50 was > 100 µM (inactive) in experiment [1]; > 100 µM (inactive) in experiment [2]; 2.94 µM (inactive) in [3]; 91.2 µM (inactive) in [4]; > 100 µM (inactive) in experiment [5]; > 100 µM (inactive) in [6]. Also, the GI50 in experiment [7] was > 100 µM (inactive); in [8], > 100 µM (inactive); in [9], > 100 µM (inactive); in [10], 41.2 µM (inactive); in experiment [11], > 100 µM (inactive); in [12], > 100 µM (inactive). The GI50 in experiment [13] was 77.6 µM (inactive); in [14], > 100 µM (inactive); in experiment [15], > 100 µM (inactive).
Take `CCCC(=O)n1[nH]c(=O)n(C(C)(C)C)c1=O`: the GI50 in [2], in experiment [3], in [4], in [5], in experiment [6] and in experiment [7] was > 100 µM (inactive) throughout. The GI50 in [8], in experiment [9], in experiment [10], in [11], in [12] and in experiment [13] was > 100 µM (inactive) in each case. Besides, the GI50 in experiment [14], in [16] and in experiment [15] was > 100 µM (inactive) in each case.
As to `CC1(C)CCCCC1/C=C/C(CC(O)(C(F)(F)F)C(F)(F)F)=N\Nc1ccc([N+](=O)[O-])cc1[N+](=O)[O-]` (stereo not given), the GI50 in [1] was 0.292 µM (active); in experiment [2], 4.23 µM (inactive); in [3] it was 4.32 µM (inactive); in [4] it was 1.38 µM (inactive); in experiment [5] it was 0.514 µM (active); in experiment [6] it was 1.76 µM (inactive). In addition, the GI50 is 0.48 µM (active) in experiment [7]; 2.33 µM (inactive) in experiment [8]; 4.33 µM (inactive) in experiment [9]; 0.518 µM (active) in experiment [10]; 2.68 µM (inactive) in [11]; 0.962 µM (active) in experiment [12]. Moreover, the GI50 in [13] is 0.807 µM (active); in [14] it was 0.33 µM (active); in [16], 0.409 µM (active).
With `N#Cc1c(N)oc(-c2ccc([N+](=O)[O-])cc2)c1C#N`, the GI50 in [1] was 19.8 µM (inactive); in experiment [2], 44.2 µM (inactive); in experiment [3], 18.7 µM (inactive); in experiment [4] it was > 100 µM (inactive); in experiment [5] it was 18.5 µM (inactive); in experiment [6], 34.4 µM (inactive). For the same molecule, the GI50 in experiment [7] is 27.2 µM (inactive); in [8] it was 39.4 µM (inactive); in [9], 75.3 µM (inactive); in experiment [10] it was 54.2 µM (inactive); in [11], 72.6 µM (inactive); in [12] it was 25.2 µM (inactive). Further, the results for the GI50 in [14] and in [15] were 33.3 µM (inactive) and 24.3 µM (inactive), respectively.
With `CC(C)SC(C)(NC(=O)C1C(C)(C)CCC1(C)C)C(=O)O` (stereo not given), the GI50 in [1], in [2], in experiment [3], in experiment [4], in [7] and in [8] was > 100 µM (inactive) throughout. Further, the GI50 in [9], in experiment [10], in experiment [13] and in experiment [14] was > 100 µM (inactive) each time.
For the molecule `Cc1cn(CCOCCOC(=O)NC(CCCNC(=N)N)C(=O)O)c(=O)[nH]c1=O` (stereo not given), the GI50 was > 100 µM (inactive) in experiment [1]; > 100 µM (inactive) in [2]; 26.8 µM (inactive) in [3]; > 100 µM (inactive) in experiment [4]; > 100 µM (inactive) in [5]; > 100 µM (inactive) in [6]. For the same molecule, the GI50 in experiment [7], in [8], in [9], in [10], in experiment [11] and in experiment [12] was > 100 µM (inactive) in each case. Besides, the GI50 in experiment [13], in experiment [14] and in [16] was > 100 µM (inactive) each time.
Regarding `CCc1c2c(cc3c1CC1(C3)Cc3cc4c(c(C(=O)OC)c3C1)CCCC4)CCCC2` (stereo not given), the GI50 in experiment [1] is > 100 µM (inactive); in experiment [3], > 100 µM (inactive); in experiment [4], 80.9 µM (inactive); in experiment [5], > 100 µM (inactive); in experiment [6], > 100 µM (inactive); in [7], > 100 µM (inactive). Also, the GI50 in experiment [8] was > 100 µM (inactive); in experiment [9], > 100 µM (inactive); in experiment [10], 51.8 µM (inactive); in [11], > 100 µM (inactive); in experiment [12] it was > 100 µM (inactive); in experiment [13], 34.5 µM (inactive). The GI50 in [14] and in [16] was > 100 µM (inactive) each time.
Regarding `Cc1cn(C2OC(CO[Si](C)(C)C(C)(C)C)C(N(C)O[Si](C)(C)C(C)(C)C)C2[Se]c2ccccc2)c(=O)[nH]c1=O` (stereo not given), the GI50 in experiment [2] is 5.56 µM (inactive); in experiment [3], 13.2 µM (inactive); in experiment [4] it was > 100 µM (inactive); in [5], 8.17 µM (inactive); in experiment [6], 3.34 µM (inactive); in [7], 3.92 µM (inactive). For the same molecule, the GI50 in [8] is 3 µM (inactive); in experiment [9] it was 8.3 µM (inactive); in experiment [10] it was 9.89 µM (inactive); in [11], 3.66 µM (inactive); in experiment [13], 3.72 µM (inactive); in experiment [14], 3.18 µM (inactive). The GI50 in [16] is 4.39 µM (inactive).
With `Cc1cc(C)c(N[S+]([O-])c2ccc(Cl)cc2)c(C)c1` (stereo not given), the GI50 in experiment [1], in experiment [2], in experiment [3], in experiment [4], in [6] and in experiment [7] was > 100 µM (inactive) throughout. Besides, the GI50 in [8], in [9], in [10], in experiment [11], in experiment [12] and in experiment [13] was > 100 µM (inactive) throughout. The GI50 in experiment [14] and in [16] was > 100 µM (inactive) in each case.
As to `O=c1cc(N2CCCC2)[nH]c(=O)n1Cc1ccccc1`, the GI50 in experiment [1], in experiment [2], in [3], in experiment [4], in [5] and in experiment [6] was > 100 µM (inactive) in each case. Moreover, the GI50 in experiment [7], in experiment [8], in experiment [9], in experiment [10], in experiment [11] and in [12] was > 100 µM (inactive) throughout. The GI50 in [13], in experiment [14] and in experiment [15] was > 100 µM (inactive) throughout.
